In ChEMBL document CHEMBL1641539 (Bioorg Med Chem Lett, 2011):

Key:
[1] = biological target: Serine/threonine-protein kinase 10 (Homo sapiens) (UniProt O94804); assay: Inhibition of human LOK at 10 uM after 60 mins by TR-FRET assay; conditions: values are per cent of control
[2] = biological target: Ribosomal protein S6 kinase alpha-3 (Homo sapiens) (UniProt P51812); assay: Inhibition of human Rsk2 at 10 uM after 60 mins by TR-FRET assay; conditions: values are per cent of control
[3] = biological target: Tyrosine-protein kinase HCK (Homo sapiens) (UniProt P08631); assay: Inhibition of human Hck at 10 uM after 60 mins by TR-FRET assay; values are per cent of control
[4] = biological target: Insulin receptor-related protein (Homo sapiens) (UniProt P14616); assay: Inhibition of human IRR at 10 uM after 60 mins by TR-FRET assay; values are per cent of control
Sequence of Insulin receptor-related protein (Homo sapiens) (P14616 27-742 limits assumed): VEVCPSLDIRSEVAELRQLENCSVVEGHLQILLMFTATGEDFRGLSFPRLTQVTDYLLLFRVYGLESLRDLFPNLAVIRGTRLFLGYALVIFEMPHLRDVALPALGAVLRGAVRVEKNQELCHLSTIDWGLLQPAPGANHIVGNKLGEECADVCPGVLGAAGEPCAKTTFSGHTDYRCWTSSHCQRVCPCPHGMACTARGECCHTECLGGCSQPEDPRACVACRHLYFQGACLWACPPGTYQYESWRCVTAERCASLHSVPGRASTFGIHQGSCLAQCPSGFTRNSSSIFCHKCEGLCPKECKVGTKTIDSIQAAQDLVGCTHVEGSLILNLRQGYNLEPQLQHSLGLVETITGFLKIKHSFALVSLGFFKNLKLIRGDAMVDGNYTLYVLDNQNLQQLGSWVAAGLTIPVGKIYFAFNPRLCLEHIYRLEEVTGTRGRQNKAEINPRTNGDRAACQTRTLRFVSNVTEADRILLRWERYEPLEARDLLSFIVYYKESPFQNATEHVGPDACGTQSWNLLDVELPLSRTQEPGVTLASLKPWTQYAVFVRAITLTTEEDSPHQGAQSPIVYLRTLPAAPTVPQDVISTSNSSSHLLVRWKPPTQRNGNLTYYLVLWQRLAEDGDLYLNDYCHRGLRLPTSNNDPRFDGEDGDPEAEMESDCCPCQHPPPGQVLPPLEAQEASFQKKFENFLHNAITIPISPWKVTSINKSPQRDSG
Sequence of Insulin receptor-related protein (Homo sapiens) (P14616 747-1297 limits assumed): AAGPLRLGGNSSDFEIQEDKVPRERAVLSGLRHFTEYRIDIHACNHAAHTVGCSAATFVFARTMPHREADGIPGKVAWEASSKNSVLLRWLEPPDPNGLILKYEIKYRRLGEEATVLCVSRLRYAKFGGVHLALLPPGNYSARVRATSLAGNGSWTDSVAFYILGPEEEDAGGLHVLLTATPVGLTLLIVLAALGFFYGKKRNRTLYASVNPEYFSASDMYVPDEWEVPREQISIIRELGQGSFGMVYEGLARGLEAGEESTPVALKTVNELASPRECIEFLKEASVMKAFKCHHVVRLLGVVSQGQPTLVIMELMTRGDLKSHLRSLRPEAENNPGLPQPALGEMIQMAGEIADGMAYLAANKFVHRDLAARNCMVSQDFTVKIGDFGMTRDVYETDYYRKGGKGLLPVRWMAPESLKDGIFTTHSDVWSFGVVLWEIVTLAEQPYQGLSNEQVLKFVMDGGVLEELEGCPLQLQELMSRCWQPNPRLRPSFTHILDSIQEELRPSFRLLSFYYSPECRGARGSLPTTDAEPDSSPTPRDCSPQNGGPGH

[5] = biological target: Tyrosine-protein kinase TXK (Homo sapiens) (UniProt P42681); assay: Inhibition of human Txk at 10 uM after 60 mins by TR-FRET assay; values are per cent of control
[6] = biological target: Proto-oncogene tyrosine-protein kinase receptor Ret (Homo sapiens) (UniProt P07949); assay: Inhibition of human Ret at 10 uM after 60 mins by TR-FRET assay; values are per cent of control
Sequence of Proto-oncogene tyrosine-protein kinase receptor Ret (Homo sapiens) (P07949 whole entry): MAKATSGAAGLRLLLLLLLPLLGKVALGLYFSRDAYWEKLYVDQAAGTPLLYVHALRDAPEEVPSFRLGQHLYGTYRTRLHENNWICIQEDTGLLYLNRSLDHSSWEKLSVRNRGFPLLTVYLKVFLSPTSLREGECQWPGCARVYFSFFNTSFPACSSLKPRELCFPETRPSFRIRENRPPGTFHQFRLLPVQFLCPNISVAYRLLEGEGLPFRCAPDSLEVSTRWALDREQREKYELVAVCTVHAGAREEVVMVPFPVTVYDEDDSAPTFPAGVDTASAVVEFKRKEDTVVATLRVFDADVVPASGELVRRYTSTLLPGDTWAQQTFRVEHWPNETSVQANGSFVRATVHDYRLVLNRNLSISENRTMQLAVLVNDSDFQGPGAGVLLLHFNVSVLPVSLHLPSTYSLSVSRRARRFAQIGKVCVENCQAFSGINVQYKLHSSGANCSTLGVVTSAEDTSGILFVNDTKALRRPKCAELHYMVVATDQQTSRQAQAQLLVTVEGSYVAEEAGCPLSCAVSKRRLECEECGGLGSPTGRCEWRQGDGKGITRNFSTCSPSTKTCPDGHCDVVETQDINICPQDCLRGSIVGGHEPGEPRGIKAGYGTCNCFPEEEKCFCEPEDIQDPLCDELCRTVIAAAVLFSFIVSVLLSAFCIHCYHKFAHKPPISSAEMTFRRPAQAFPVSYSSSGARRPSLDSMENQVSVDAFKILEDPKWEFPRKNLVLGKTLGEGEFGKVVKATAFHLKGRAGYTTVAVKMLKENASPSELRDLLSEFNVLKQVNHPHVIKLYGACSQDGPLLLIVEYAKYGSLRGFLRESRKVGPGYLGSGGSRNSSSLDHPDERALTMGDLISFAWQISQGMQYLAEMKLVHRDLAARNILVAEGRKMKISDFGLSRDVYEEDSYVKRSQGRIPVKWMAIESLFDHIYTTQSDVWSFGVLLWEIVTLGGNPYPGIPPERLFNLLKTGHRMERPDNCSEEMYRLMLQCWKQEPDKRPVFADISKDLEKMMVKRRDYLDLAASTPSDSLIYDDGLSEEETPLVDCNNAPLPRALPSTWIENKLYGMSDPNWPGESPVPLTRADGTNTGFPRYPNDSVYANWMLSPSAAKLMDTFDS

[7] = biological target: Vascular endothelial growth factor receptor 3 (Homo sapiens) (UniProt P35916); assay: Inhibition of human Flt4 at 10 uM after 60 mins by TR-FRET assay; values are per cent of control
[8] = biological target: G protein-coupled receptor kinase 6 (Homo sapiens) (UniProt P43250); assay: Inhibition of human GRK6 at 10 uM after 60 mins by TR-FRET assay; values are per cent of control
[9] = biological target: Dual specificity mitogen-activated protein kinase kinase 1 (Homo sapiens) (UniProt Q02750); assay: Inhibition of human MEK1 at 10 uM after 60 mins by TR-FRET assay; values are per cent of control
[10] = biological target: Misshapen-like kinase 1 (Homo sapiens) (UniProt Q8N4C8); assay: Inhibition of human MINK at 10 uM after 60 mins by TR-FRET assay; values are per cent of control
[11] = biological target: Serine/threonine-protein kinase TAO3 (Homo sapiens) (UniProt Q9H2K8); assay: Inhibition of human TAO3 at 10 uM after 60 mins by TR-FRET assay; values are per cent of control
[12] = biological target: Serine/threonine-protein kinase PAK 2 (Homo sapiens) (UniProt Q13177); assay: Inhibition of human PAK2 at 10 uM after 60 mins by TR-FRET assay; values are per cent of control
Sequence of Serine/threonine-protein kinase PAK 2 (Homo sapiens) (Q13177 whole entry): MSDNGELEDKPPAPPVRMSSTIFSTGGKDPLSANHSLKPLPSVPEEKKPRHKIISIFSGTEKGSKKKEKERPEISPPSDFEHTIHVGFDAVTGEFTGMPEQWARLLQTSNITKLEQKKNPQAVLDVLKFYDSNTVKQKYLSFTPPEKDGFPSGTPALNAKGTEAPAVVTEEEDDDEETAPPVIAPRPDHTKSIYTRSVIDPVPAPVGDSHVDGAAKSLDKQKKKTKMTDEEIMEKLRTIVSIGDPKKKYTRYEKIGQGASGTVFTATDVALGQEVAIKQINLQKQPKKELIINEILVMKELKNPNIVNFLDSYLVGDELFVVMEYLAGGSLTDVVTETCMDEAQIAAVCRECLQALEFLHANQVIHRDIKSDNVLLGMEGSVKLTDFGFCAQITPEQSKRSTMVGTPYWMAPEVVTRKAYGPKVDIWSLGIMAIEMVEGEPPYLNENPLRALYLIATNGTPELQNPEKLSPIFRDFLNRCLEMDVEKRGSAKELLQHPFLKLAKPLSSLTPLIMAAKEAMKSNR

[13] = biological target: Serine/threonine-protein kinase PLK1 (Homo sapiens) (UniProt P53350); assay: Inhibition of human Plk1 at 10 uM after 60 mins by TR-FRET assay; values are per cent of control
[14] = biological target: Serine/threonine-protein kinase BRSK1 (Homo sapiens) (UniProt Q8TDC3); assay: Inhibition of human BrSK1 at 10 uM after 60 mins by TR-FRET assay; values are per cent of control
[15] = biological target: RAF proto-oncogene serine/threonine-protein kinase (Homo sapiens) (UniProt P04049); assay: Inhibition of human c-RAF at 10 uM after 60 mins by TR-FRET assay; values are per cent of control
[16] = biological target: Death-associated protein kinase 2 (Homo sapiens) (UniProt Q9UIK4); assay: Inhibition of human DAPK2 at 10 uM after 60 mins by TR-FRET assay; values are per cent of control
Sequence of Death-associated protein kinase 2 (Homo sapiens) (Q9UIK4 whole entry, looked up): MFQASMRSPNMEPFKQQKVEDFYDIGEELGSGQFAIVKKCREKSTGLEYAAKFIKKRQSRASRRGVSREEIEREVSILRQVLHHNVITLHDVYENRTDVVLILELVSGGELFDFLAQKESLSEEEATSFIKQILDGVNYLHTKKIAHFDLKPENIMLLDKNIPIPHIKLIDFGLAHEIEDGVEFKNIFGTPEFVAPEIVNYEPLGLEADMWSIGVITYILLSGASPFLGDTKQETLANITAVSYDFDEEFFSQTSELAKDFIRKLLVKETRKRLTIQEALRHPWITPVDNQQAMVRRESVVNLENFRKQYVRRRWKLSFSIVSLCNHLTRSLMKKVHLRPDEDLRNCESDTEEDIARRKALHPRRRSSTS

[17] = biological target: Ribosomal protein S6 kinase beta-1 (Homo sapiens) (UniProt P23443); assay: Inhibition of human p70S6K at 10 uM after 60 mins by TR-FRET assay; values are per cent of control
[18] = biological target: Protein kinase C eta type (Homo sapiens) (UniProt P24723); assay: Inhibition of human PKCeta at 10 uM after 60 mins by TR-FRET assay; values are per cent of control
[19] = biological target: Rho-associated protein kinase 1 (Homo sapiens) (UniProt Q13464); assay: Inhibition of human ROCK-1 at 10 uM after 60 mins by TR-FRET assay; values are per cent of control
[20] = biological target: Serine/threonine-protein kinase MRCK beta (Homo sapiens) (UniProt Q9Y5S2); assay: Inhibition of human MRCKbeta at 10 uM after 60 mins by TR-FRET assay; values are per cent of control
[21] = biological target: Protein kinase C beta type (Homo sapiens) (UniProt P05771); assay: Inhibition of human PKCbeta1 at 10 uM after 60 mins by TR-FRET assay; values are per cent of control
Sequence of Protein kinase C beta type (Homo sapiens) (P05771 2-671 limits assumed): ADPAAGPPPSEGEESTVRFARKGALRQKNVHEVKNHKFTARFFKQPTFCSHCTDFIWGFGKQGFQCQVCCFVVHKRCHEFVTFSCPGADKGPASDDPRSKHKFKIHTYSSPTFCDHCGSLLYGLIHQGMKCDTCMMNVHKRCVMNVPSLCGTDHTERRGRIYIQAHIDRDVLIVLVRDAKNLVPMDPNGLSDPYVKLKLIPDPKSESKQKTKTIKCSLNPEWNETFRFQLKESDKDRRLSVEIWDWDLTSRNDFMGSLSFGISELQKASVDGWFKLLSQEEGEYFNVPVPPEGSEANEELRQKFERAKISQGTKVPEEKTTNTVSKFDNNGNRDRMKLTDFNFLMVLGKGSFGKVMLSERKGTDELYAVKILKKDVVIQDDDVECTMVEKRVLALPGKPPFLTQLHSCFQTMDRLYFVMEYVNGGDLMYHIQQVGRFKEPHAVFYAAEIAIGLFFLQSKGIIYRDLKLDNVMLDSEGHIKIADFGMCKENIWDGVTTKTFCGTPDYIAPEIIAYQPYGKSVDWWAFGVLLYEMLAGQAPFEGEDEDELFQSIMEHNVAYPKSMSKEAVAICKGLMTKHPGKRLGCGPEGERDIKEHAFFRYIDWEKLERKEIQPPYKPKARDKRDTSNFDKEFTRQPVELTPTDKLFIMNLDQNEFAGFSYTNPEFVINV

[22] = biological target: Protein kinase C gamma type (Homo sapiens) (UniProt P05129); assay: Inhibition of human PKCgamma at 10 uM after 60 mins by TR-FRET assay; values are per cent of control
[23] = biological target: Serine/threonine-protein kinase MARK2 (Homo sapiens) (UniProt Q7KZI7); assay: Inhibition of human PAR-1Balpha at 10 uM after 60 mins by TR-FRET assay; values are per cent of control
[24] = system: Tyrosine-protein kinase ABL1 (Homo sapiens), P00519 [Y253F]; assay: Inhibition of human Abl Y253F mutant at 10 uM after 60 mins by TR-FRET assay; values are per cent of control
[25] = system: Proto-oncogene tyrosine-protein kinase receptor Ret (Homo sapiens), P07949 [V804M]; assay: Inhibition of human Ret V804M mutant at 10 uM after 60 mins by TR-FRET assay; values are per cent of control
Sequence of Proto-oncogene tyrosine-protein kinase receptor Ret (Homo sapiens), P07949 [V804M] (P07949 whole entry V804M): as the sequence (P07949 whole entry) above, with V804M counted along it

Sequence of Serine/threonine-protein kinase 10 (Homo sapiens) (O94804 whole entry, looked up): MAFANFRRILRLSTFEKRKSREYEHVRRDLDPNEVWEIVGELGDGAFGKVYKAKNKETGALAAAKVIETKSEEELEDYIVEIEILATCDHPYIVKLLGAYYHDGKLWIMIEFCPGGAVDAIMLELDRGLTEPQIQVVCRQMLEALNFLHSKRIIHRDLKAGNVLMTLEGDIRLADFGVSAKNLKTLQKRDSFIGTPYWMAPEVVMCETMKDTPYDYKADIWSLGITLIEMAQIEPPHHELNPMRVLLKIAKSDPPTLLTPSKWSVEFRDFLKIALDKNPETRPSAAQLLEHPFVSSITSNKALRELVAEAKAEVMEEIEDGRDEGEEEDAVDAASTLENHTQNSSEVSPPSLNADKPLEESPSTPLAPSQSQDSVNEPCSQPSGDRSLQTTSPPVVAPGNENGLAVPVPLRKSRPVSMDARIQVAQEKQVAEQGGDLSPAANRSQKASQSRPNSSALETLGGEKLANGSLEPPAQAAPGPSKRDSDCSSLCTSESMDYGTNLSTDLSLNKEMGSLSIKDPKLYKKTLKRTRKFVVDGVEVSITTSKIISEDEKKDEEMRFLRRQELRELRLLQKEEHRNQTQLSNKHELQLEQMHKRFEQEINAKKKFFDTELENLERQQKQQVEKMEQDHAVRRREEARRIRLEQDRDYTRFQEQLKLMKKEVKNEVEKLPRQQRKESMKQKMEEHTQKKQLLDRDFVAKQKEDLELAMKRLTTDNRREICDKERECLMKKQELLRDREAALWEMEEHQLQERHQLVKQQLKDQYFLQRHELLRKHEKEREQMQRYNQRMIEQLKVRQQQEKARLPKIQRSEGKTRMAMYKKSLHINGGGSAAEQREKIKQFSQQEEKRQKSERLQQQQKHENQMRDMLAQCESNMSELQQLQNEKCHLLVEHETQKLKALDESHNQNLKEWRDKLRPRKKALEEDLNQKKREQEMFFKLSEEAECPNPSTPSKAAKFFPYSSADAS

Compound: S=c1[nH]nc(-c2ccncc2)n1-c1ccc2ccccc2c1
- residual activity [1]: 89%
- residual activity [2]: 98%
- residual activity [3]: 112%
- residual activity [4]: 111%
- residual activity [5]: 93%
- residual activity [6]: 108%
- residual activity [7]: 95%
- residual activity [8]: 108%
- residual activity [9]: 110%
- residual activity [10]: 80%
- residual activity [11]: 91%
- residual activity [12]: 108%
- residual activity [13]: 90%
- residual activity [14]: 102%
- residual activity [15]: 35%
- residual activity [16]: 108%
- residual activity [17]: 102%
- residual activity [18]: 107%
- residual activity [19]: 110%
- residual activity [20]: 106%
- residual activity [21]: 109%
- residual activity [22]: 102%
- residual activity [23]: 110%
- residual activity [24]: 105%
- residual activity [25]: 116%
